In patent publication US5916914A, “Compounds and method of treating psychosis and schizophrenia” (priority 1997, dated 1999):
pKi: −log10 of the molar value. Structures can show the parent of a compound that is named as a salt.

Tests used:
[1] = target: T1, human recombinant dopamine D4.2 receptor (Homo sapiens, UniProt P21917, DEL265-296); experiment: Receptor binding assay, D4.2 ([^3 H]spiperone)
T1 construct: expressed in transfected cells
T1 sequence (P21917 with tags, fused parts or gaps DEL265-296): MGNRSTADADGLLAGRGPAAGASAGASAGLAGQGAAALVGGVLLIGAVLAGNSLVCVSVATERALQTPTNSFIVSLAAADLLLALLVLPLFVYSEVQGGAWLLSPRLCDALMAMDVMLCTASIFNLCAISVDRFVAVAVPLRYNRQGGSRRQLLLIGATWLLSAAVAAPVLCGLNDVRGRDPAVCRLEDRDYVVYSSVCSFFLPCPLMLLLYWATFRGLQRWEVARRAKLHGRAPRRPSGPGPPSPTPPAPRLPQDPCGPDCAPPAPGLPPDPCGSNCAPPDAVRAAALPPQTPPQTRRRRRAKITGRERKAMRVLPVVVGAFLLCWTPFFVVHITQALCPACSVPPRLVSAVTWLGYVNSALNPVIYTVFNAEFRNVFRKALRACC
Source text: (§1) A cell line expressing human dopamine D2 (Long form) receptors was purchased from Oregon Health Sciences University, Portland, Oreg. The D2 receptor cDNA was subcloned into an expression vector, pRc/CMV. The plasmids were transfected by electroporation into CHO K1 cells. A single stable transfectant, resistant to the antibiotic G418, was isolated and selected for use in the binding studies. For D4 binding, CHO K1 cells stably transfected to express the human recombinant dopamine D4.2 receptor subtype, as described by Shih, et al., "The expression and functional characterization of human dopamine D4.2 receptor in CHO K1 cells," Soc. Neurosci., 1995;21 (Part 1):621 were used.
(§2) CHO K1 cells expressing either human D2 and D4.2 receptors were grown in 162 cm^2 culture flasks in F12 medium (Gibco Laboratories, Grand Island, N.Y.) supplemented with 10% fetal bovine serum (FBS, Hyclone, Logan, Utah) in an atmosphere of 5% CO2 /95% air at 37 EC. Cells were grown until confluent, after which growth medium was removed and replaced with 0.02% ethylene diamine tetracetate (EDTA) in a phosphate-buffered saline solution (Sigma Chemical Co., St. Louis, Mo.) and scraped from the flasks. The cells were centrifuged at about 1000×g for 10 minutes at 4° C. and then resuspended in TEM buffer (25 mM Tris-HCL, pH 7.4, 5 mM EDTA, and 6 mM MgCl2) for D2 or the D4.2 buffer (50 mM Tris-HCl, pH 7.4, 5 mM EDTA, 1.5 mM CaCl2, 5 mM KCl, and 120 mM NaCl) and homogenized. The membranes were pelleted by centrifugation at 20000×g at 4° C. for 20 minutes. Then the pellets were resuspended in appropriate buffer at 1 mL/flask and stored at -70° C. until used in the receptor binding assay.
(§3) After 60 minutes incubation at 25° C., the incubations were terminated by rapid filtration through Whatmann GF/B glass fibre filters (soaked for 1 hour in 0.5% polyethylenimine) on a cell harvester, with three washes of 1 mL ice-cold buffer. Individual filter disks containing the bound ligand were placed in counting vials with 4 mL of scintillation fluid (Ready Gel, Beckman Instrument, Inc., Fullerton, Calif.) and then counted in a Beckman LS-6800 liquid scintillation counter at an efficiency of 45%. Nonspecific binding was defined in presence of 1 mM of haloperidol.
(§4) Saturation and competition binding data were analyzed using an iterative nonlinear least square curve-fitting Ligand program. […] Experimental compounds were made up as stock solutions in dimethyl sulfoxide (DMSO). […] Each observation was carried out in triplicate. To allow these calculations, Kd values were measured for the interaction of various ligands with the receptor. […]

[2] = target: human dopamine D2 (Long form) receptors (Homo sapiens, UniProt P14416); experiment: biochemical; assay type: binding
Chain of human dopamine D2 (Long form) receptors (P14416 whole entry): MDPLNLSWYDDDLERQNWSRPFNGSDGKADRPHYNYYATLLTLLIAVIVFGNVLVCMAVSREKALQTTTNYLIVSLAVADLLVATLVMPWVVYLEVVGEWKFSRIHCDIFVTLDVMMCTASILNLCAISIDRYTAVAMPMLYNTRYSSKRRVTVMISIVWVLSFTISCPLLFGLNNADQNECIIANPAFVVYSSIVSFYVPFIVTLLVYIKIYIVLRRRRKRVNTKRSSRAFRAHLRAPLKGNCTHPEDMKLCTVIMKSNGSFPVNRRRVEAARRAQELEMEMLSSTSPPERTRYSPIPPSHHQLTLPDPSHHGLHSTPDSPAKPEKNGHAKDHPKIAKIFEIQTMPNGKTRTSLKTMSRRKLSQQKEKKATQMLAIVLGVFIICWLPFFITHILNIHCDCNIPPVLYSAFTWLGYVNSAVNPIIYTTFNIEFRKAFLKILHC
Source text: as §1, §2, §3, §4

pKi [1] | pKi [2] | Structure (SMILES)
7.22 |  | O=c1ccc2ccc(CNCCCc3ccccc3)cc2o1 [Example 4q, 7-[(3-Phenyl-propylamino)-methyl]-chromen-2-one]
7.70 | 5.97 | O=c1ccc2cc(CNCCCOc3ccccc3)ccc2o1 [Example 4t, 6-[(3-Phenoxy-propylamino)-methyl]-chromen-2-one]
8.41 | 6.71 | Cc1ccc(OCCNCc2ccc3ccc(=O)oc3c2)cc1 [Example 4n, 7-[(2-p-Tolyloxy-ethylamino)-methyl]-chromen-2-one]
8.02 | 6.54 | O=c1ccc2ccc(CNCCOc3ccc(Cl)cc3)cc2o1 [Example 4o, 7-{[2-(4-Chloro-phenoxy)-ethylamino]-methyl}-chromen-2-one]
7.04 |  | O=c1ccc2ccc(CNCCCOc3ccc(Cl)cc3)cc2o1 [Example 4r, 7-{[3-(4-Chloro-phenoxy)-propylamino]-methyl}-chromen-2-one]
6.63 |  | Cc1ccc(OCCCNCc2ccc3ccc(=O)oc3c2)cc1 [Example 4s, 7-[(3-p-Tolyloxy-propylamino)-methyl]-chromen-2-one]
7.37 |  | O=c1ccc2ccc(CNCCOc3ccccc3)cc2o1 [Example 4m, 7-[(2-Phenoxy-ethylamino)-methyl]-chromen-2-one]
6.40 |  | O=c1ccc2ccc(CNCCSc3ccccc3)cc2o1 [Example 4p, 7-[(2-Phenylsulfanyl-ethylamino)-methyl]-chromen-2-one hydrochloride]

The remaining lines, values behind:

Structure (SMILES) | pKi [1] | pKi [2]
c1ccc(OCCCNCCOc2ccc3ncccc3c2)cc1 [Example 2a, (3-Phenoxy-propyl)-[2-quinolin-6-yloxy)-ethyl]-amine hydrochloride] | 7.89 | 6.24
c1ccc(OCCCNCCOc2ccc3occc3c2)cc1 [Example 3b, [2-(Benzofuran-5-yloxy)-ethyl]-(3-phenoxy-propyl)-amine hydrochloride] | 8.92 | 6.30
O=c1ccc2cc(CNCCNc3ccccc3)ccc2o1 [Example 4g, 6-[(2-Phenylamino-ethylamino)-methyl]-chromen-2-one] | 6.51 | 
Cc1cc(=O)oc2ccc(OCCNCCCOc3ccccc3)cc12 [Example 3a, 4-Methyl-6-[2-(3-phenoxy-propylamino)-ethoxy]-chromen-2-one hydrochloride] | 7.15 | 
O=c1ccc2ccc(CNCCNc3ccc(CO)c(Cl)c3)cc2o1 [Example 4a, 7-{[2-(3-Chloro-4-hydroxymethyl-phenylamino)-ethylamino]-methyl}-chromen-2-one] | 7.02 | 
Cc1cc(=O)oc2cc(OCCNCCCOc3ccccc3)ccc12 [Example 3, 4-Methyl-7-[2-(3-phenoxy-propylamino)-ethoxy]-chromen-2-one Hydrochloride] | 8.72 | 6.64
c1ccc(OCCCNCCOc2ccc3oc4ccccc4c3c2)cc1 [Example 2d, [2-(Dibenzofuran-2-yloxy)-ethyl]-(3-phenoxypropyl)-amine hydrochloride] | 7.10 | 
Cc1ccc(OCCNCc2ccc3oc(=O)ccc3c2)cc1 [Example 4k, 6-[(2-p-Tolyloxy-ethylamino)-methyl]-chromen-2-one] | 7.62 | 5.23
O=c1ccc2ccc(OCCNCCCOc3ccccc3)cc2o1 [Example 2c, 7-[2-(3-Phenoxy-propylamino)-ethoxy]-chromen-2-one hydrochloride] | 8.80 | 6.60
O=c1ccc2ccc(CNCCCNc3ccccc3)cc2o1 [Example 4i, 7-[(3-Phenylamino-propylamino)-methyl]-chromen-2-one] | 7.51 | 
O=c1ccc2cc(CNCCOc3ccccc3)ccc2o1 [Example 4j, 6-[(2-Phenoxy-ethylamino)-methyl]-chromen-2-one hydrochloride] | 7.19 | 
O=c1ccc2ccc(CNCCNc3cccc(Cl)c3)cc2o1 [Example 4d, 7-{[2-(3-Chloro-phenylamino)-ethylamino]-methyl}-chromen-2-one dihydrochloride] | 7.38 | 
O=c1ccc2cc(CNCCOc3ccc(Cl)cc3)ccc2o1 [Example 4l, 6-{[2-(4-Chloro-phenoxy)-ethylamino]-methyl}-chromen-2-one] | 7.87 | 5.31
